# Data reported in patent US11505581B2, “Antigens and T cell epitopes from cockroach and methods of making and using same” (La Jolla Institute for Allergy and Immunology, priority 2015, dated 2022).
# Test system: PBMC
# Test: ELISPOT (IFNγ, IL-5, IL-10, IL-17, IL-21) of PBMC expanded 14 days with Bla g extract, then stimulated with peptides or peptide pools
# Assay type: cell-based, human
# Parameters: key to Average Magnitude of Response: spot forming cells (SFC) per 10^6 PBMC; Response Rate per Subject: unit not given here; key to % (percentage of subjects responding to given antigen) / SFC (mean magnitude of response): “—” denotes no response
# Details: for Average Magnitude of Response / Response Rate per Subject: non-redundant epitopes, sensitized donors; for T cell reactivity (cytokine release) to NBGA, in words: sensitized subjects, 2-week extract stimulation
# Method: PBMC Isolation and Cell Cultures: PBMC (peripheral blood mononuclear cells) were isolated from 450 mL (one unit) of blood by density gradient centrifugation as described and cryopreserved. For in vitro expansion of PBMC for peptide screening, cells were cultured in RPMI1640 (Omega Scientific)+5% human AB serum (Gemini Bioscience), GlutaMAX (Gibco), and penicillin/streptomycin (Omega Scientific) at 2×10^6 per mL, stimulated with 10 ug/mL Bla g extract (Greer), and incubated at 37° C. in 5% CO2. Every three days, IL-2 and IL-7 (10 U/mL) were added to the cultures. Cells were harvested for peptide screening at day 14.
# ELISPOT Assays: Production of IFNγ, IL-5, IL-17, IL-10, and IL-21 (as representative of TH1, TH2, TH17, TR1, and […], respectively) in response to peptide stimulation was measured by ELISPOT as described previously. […] In brief, 1×10^5 cells per well were incubated with peptide, peptide pool, or Bla g extract (10, 5, and 10 ug/ml, respectively) on anti-lymphokine antibody coated ELISPOT plates (Millipore #MSIPS4510) for 22 hours. Subsequently, secondary anti-lymphokine antibodies were added and incubated for 2 hours, washed, and avidin-peroxidase complex added for 1 hour. Plates were washed and spots developed with 3-amino-9-ethylcarbazole (Sigma #A6926) and Vector Blue (Vector #SK-5300) for IFNγ/IL-5 and IL-10/IL-17 dual plates or TMB (Sigma #T0565) for single IL-21. Criteria for peptide pool positivity were at least 100 spot forming cells (SFC) per 10^6 PBMC, p<0.05, and stimulation index≥2. Criteria for peptide positivity were identical except with a threshold of 20 SFCs.
# We synthetized overlapping peptide sets of 15 amino acids in length overlapping by 10 residues and covering the entire sequence of known Bla g Allergens, i.e. Bla g 1-7, 9 and 11, referred from hereafter collectively as BLAGA. A total of 809 BLAGA peptides were arranged in pools, encompassing on average 20 peptides.
# To assess T cell reactivity, we utilized a strategy applied to the definition of epitopes from various allergen sources^15,16 utilizing in vitro stimulation with allergen extracts. Here, PBMC from each subject were stimulated in vitro with Bla g extract. After 14 days, pools of overlapping 15-mer peptides from the BLAGA were tested for responses, and positive pools deconvoluted to identify the specific epitopes. As readout, we utilized ELISPOT assays specific for IL-5, IFNγ, IL-10, IL-17 and IL-21, chosen as representative of TH2, TH1, TR1, TH17 and TFH reactivity, respectively.
# [1] = Asthmatic (combines IA, MMA, SA)
Substance,Average Magnitude of Response,Response Rate per Subject,other results
QTLFLLLLLLAAVSA,3.2,1.4,
QVYRRLVTAVNDIEK,44.1,5.7,
RCGRSMQGYPFNPCL,20.4,10.0,
RCNNVGIRIYVDVVL,13.0,2.9,
RDMVRRCNNVGIRIY,5.2,5.7,
RGNNAIKWLVNFGVG,15.0,5.7,
RHNSAYKLHFNAFEY,44.0,1.4,
RIKAFLALVECPCNK,4.2,1.4,
RILLRLHRCFQVLGR,13.5,1.4,
RLFGAEVGWLALHHN,35.5,1.4,
RSEERLATATAKLAE,13.3,1.4,
RVPFSHDDRLGFLTF,34.2,7.1,
RWRQIFNMVGFRNAV (listed as Blattella germanica),61.7,11.4,
Receptor for activated protein kinase C [RACK1],,,"% (percentage of subjects responding to given antigen) (AR): —; SFC (mean magnitude of response) (AR): —; % (percentage of subjects responding to given antigen) [1]: 9%; SFC (mean magnitude of response) [1]: 19 SFC; % (percentage of subjects responding to given antigen) (Controls): 2%; SFC (mean magnitude of response) (Controls): 30 SFC; % (percentage of subjects responding to given antigen) (IA): 12%; SFC (mean magnitude of response) (IA): 31 SFC; % (percentage of subjects responding to given antigen) (MMA): 11%; SFC (mean magnitude of response) (MMA): 3 SFC; % (percentage of subjects responding to given antigen) (SA): —; SFC (mean magnitude of response) (SA): —; T cell reactivity (cytokine release) to NBGA, in words: Significant reactivity"
SEVTALNRQIGGTPI,3.9,2.9,
SHVHFRFVPSAAVEF,3.3,1.4,
SINLMFSQMYHAQLA,4.3,1.4,
SPYFVTNTEKMITEF,13.6,2.9,
SSLFQVANQYTGILY,50.2,10.0,
STSCNVVVASQECVG,4.2,4.3,
STSLVKAHSMRNSAS,19.9,4.3,
SVNATVVRLQSWQSE,4.1,2.9,
TGILYKARLSLDRNE,4.3,2.9,

Substance,Average Magnitude of Response,Response Rate per Subject,other results
THQFNVAGSVTVDKT,5.6,2.9,
TIPYYTKKFDEVVKA (listed as Blattella germanica),311.6,11.4,
TKKFDEVVKANGGYL,24.3,4.3,
Triosephosphate isomerase [TPI],,,"% (percentage of subjects responding to given antigen) (AR): 6%; SFC (mean magnitude of response) (AR): 13 SFC; % (percentage of subjects responding to given antigen) [1]: 11%; SFC (mean magnitude of response) [1]: 31 SFC; % (percentage of subjects responding to given antigen) (Controls): 2%; SFC (mean magnitude of response) (Controls): 17 SFC; % (percentage of subjects responding to given antigen) (IA): 6%; SFC (mean magnitude of response) (IA): 6 SFC; % (percentage of subjects responding to given antigen) (MMA): 11%; SFC (mean magnitude of response) (MMA): 83 SFC; % (percentage of subjects responding to given antigen) (SA): 23%; SFC (mean magnitude of response) (SA): 54 SFC; T cell reactivity (cytokine release) to NBGA, in words: Significant reactivity"
VAISRYLGKQFGLSG (listed as Blattella germanica),94.9,8.6,
VEALFLLMKADPSIH,4.2,1.4,
VFIGKFYTEFDMENN,4.0,2.9,
VIYVQIRFSVRRFHP,15.1,2.9,
VLEKLEAGFAKLAAS (listed as Blattella germanica),65.5,14.3,
VLGLPAIKAWVAKRP,48.5,14.3,
VNQHKKAIEEDLKHF,4.0,2.9,
VPIMNIYSAFEFDPN,18.5,4.3,
VQKLQKEVDRLEDEL,3.3,1.4,
VVFDTGSSNLWVPSK,4.7,4.3,
VVRLQSWQSEMLRMN,6.4,2.9,
VYEVAIPDRLTLRVE,3.4,2.9,
WCNEEDHLRIISMQM,13.1,7.1,
WVCEHRWRQIFNMVG,33.9,4.3,
WVPSKKCHLTNIACL,8.4,5.7,
YFVAILDYLNHMAKE (listed as Blattella germanica),137.2,15.7,
YHYDADENSKQKKWD,3.7,2.9,
YLGKQFGLSGKDDWE,22.6,8.6,
